# According to patent US20040200144A1, “Plant growth regulator and a method of producing the regulator” (Dainichiseika Color & Chemicals Mfg. Co., Ltd., priority 2003, published 2004):
# Experiments:
# Assay type in all cases: in vivo
# [1] = tested on: prince melon young plants; assay: Dwarfing test of prince melon young plant; conditions: for Plant Height / Dwarfing Rate: 5 ml per cell on 7th day, measured 27th day; for Dwarfing Rate: vs comparative group
# Description: (§1) 50 g of sodium tripolyphosphate was dissolved in 400 ml of distilled water at 80° C., 17.5 g of cinnamic acid was added to the sodium tripolyphosphate solution and dissolved by stirring, the resultant solution was diluted with distilled water until the total volume of solution was 500 ml, and thus 3.5% cinnamic acid aqueous solution (pH 6.5) was prepared. The aqueous solution was further diluted with distilled water 70 times or 17.5 times, and 0.05% cinnamic acid aqueous solution and 0.2% cinnamic acid aqueous solution were prepared, respectively.
# (§2) Nursery soil for house use was filled into paper joint pots (each with 24 cells: 34×43×50 mm/cell), water was sufficiently given to the soil, and seeds of carrots were sowed. After seeding, the pot was placed in the same greenhouse as described above to sprout. Subsequently, on the 5th day, the cinnamic aqueous acid solutions were added to the nursery soil in the joint pots. One of the joint pots (24 cells) was prepared as a 0.05% cinnamic acid aqueous solution addition group, and 5 ml of the 0.05% cinnamic acid aqueous solution was added to the nursery soil of each cell. Another one of the join pots was prepared as a 0.2% cinnamic acid aqueous solution addition group, and 5 ml of the 0.2% cinnamic acid aqueous solution was added to the nursery soil of each cell. The other one of the joint pots was prepared as a comparative group in which 5 ml of water is added to each cell, instead of the cinnamic acid aqueous solution. Subsequently, the cultivation of carrot young plants in each group was continued under general conditions. On the 27th day, the heights of young plants in each group were measured, the dwarfing rate (%) was calculated, and the dwarfing effect of cinnamic acid aqueous solution on carrot young plants was examined. […].
# In the same way as in Example 12 except that seeds of tomato were sowed, and that the cinnamic acid solutions were added to the nursery soil of the joint pot on the 7th day, the dwarfing effect of cinnamic acid aqueous solution on tomato young plants was examined. […].
# In the same way as in Example 17 except that seeds of watermelon were sowed, and that plant heights were measured on the 27th day, the dwarfing effect of cinnamic acid aqueous solution on watermelon young plants was examined. […].
# In the same way as in Example 21 except that seeds of prince melon were sowed, the dwarfing effect of cinnamic acid aqueous solution on prince melon young plants was examined. […]
# cabbage young plants = assay: Dwarfing test of cabbage young plant; conditions: for Plant Height / Dwarfing Rate: 5 ml per cell on 4th day, measured 22nd day; for Dwarfing Rate: vs comparative group
# Description: Dwarfing rate (%)=[(the plant height of the comparative group)−(the plant height of an addition group)/the plant height of the comparative group]×100
# 18.4 g of potassium hydroxide was dissolved in 400 ml of distilled water at 20° C., 50 g of cinnamic acid was added to the potassium hydroxide solution and dissolved by stirring, the resultant solution was diluted with distilled water until the total volume of solution was 500 ml, and thus 10% cinnamic acid aqueous solution (pH 8.8) was prepared. The aqueous solution was further diluted with distilled water 100 times or 33.3 times, and 0.1% cinnamic acid aqueous solution and 0.3% cinnamic acid aqueous solution were prepared, respectively.
# Nursery soil for house use was filled into the same polyethylene joint pot as described above, water was sufficiently given to the soil, and seeds of cabbage were sowed. After seeding, the pot was placed in the same greenhouse as described above to sprout. Subsequently, on the 4th day, the cinnamic acid aqueous solutions were added to the nursery soil in the joint pot. Among 36 cells, 12 cells were prepared as a 0.1% cinnamic acid aqueous solution addition group, and 5 ml of the 0.1% cinnamic acid aqueous solution in Example 3 was added to the nursery soil of each cell. Another 12 cells were prepared as 0.3% cinnamic acid aqueous solution addition group, and 5 ml of the 0.3% cinnamic acid aqueous solution in Example 3 was added to the nursery soil of each cell. Remaining 12 cells were prepared as a comparative group in which 5 ml of water is added to each cell, instead of the cinnamic acid aqueous solution. Subsequently, the cultivation of cabbage young plants in each group was continued under general conditions. On the 22nd day, the heights of young plants in each group were measured, the dwarfing rate (%) was calculated, and the dwarfing effect of cinnamic acid aqueous solution on cabbage young plants was examined.
# [2] = tested on: qing-geng-cai young plants; assay: Dwarfing test of qing-geng-cai young plant; conditions: for Plant Height / Dwarfing Rate: 5 ml per cell on 5th day, measured 20th day; for Dwarfing Rate: vs comparative group
# Description: as §1, §2
# In the same way as in Example 5 except that seeds of […] were sowed, and that plant heights were measured on the 20th day, the dwarfing effect of cinnamic acid aqueous solution on qing-geng-cai young plants was examined. […]
# squash young plants = assay: Dwarfing test of squash young plant; conditions: for Plant Height / Dwarfing Rate: 5 ml per cell on 7th day, measured 20th day; for Dwarfing Rate: vs comparative group
# Description: After seeding, the pot was placed in the same greenhouse as described above to sprout. Subsequently, on the 5th day, the cinnamic aqueous acid solutions were added to the nursery soil in the joint pots. One of the joint pots (24 cells) was prepared as a 0.05% cinnamic acid aqueous solution addition group, and 5 ml of the 0.05% cinnamic acid aqueous solution was added to the nursery soil of each cell. Another one of the join pots was prepared as a 0.2% cinnamic acid aqueous solution addition group, and 5 ml of the 0.2% cinnamic acid aqueous solution was added to the nursery soil of each cell. […] Subsequently, the cultivation of carrot young plants in each group was continued under general conditions. On the 27th day, the heights of young plants in each group were measured, the dwarfing rate (%) was calculated, and the dwarfing effect of cinnamic acid aqueous solution on carrot young plants was examined. From the results in Table 5, it became evident that the 0.05% and 0.2% cinnamic acid aqueous solutions are effective in dwarfing carrot young plants. In the same way as in Example 5 except that seeds of cauliflower were sowed, the cinnamic acid solutions were added to the nursery soil in the joint pot on the 4th day, and that heights of young plants in each group were measured on the 20th day, the dwarfing effect of cinnamic acid aqueous solution on cauliflower young plants was examined. From the results in Table 12, it became evident that the cinnamic acid aqueous solutions are effective in dwarfing cauliflower young plants. In the same way as in Example 12 except that seeds of tomato were sowed, and that the cinnamic acid solutions were added to the nursery soil of the joint pot on the 7th day, the dwarfing effect of cinnamic acid aqueous solution on tomato young plants was examined. From the results in Table 17, it became evident that the cinnamic acid aqueous solutions are effective in dwarfing tomato young plants. In the same way as in Example 17 except that seeds of squash were sowed, the dwarfing effect of cinnamic acid aqueous solution on squash young plants was examined. From the results in Table 20, it became evident that the cinnamic acid aqueous solutions are effective in dwarfing squash young plants.
smiles,measurement,setting,value
O=C(O)C=Cc1ccccc1 [cinnamic acid],Plant Height,[1]; 0.05% aqueous solution,5.3 cm
same,Dwarfing Rate,[1]; 0.05% aqueous solution,5.4%
same,Plant Height,[1]; 0.2% aqueous solution,4.1 cm
same,Dwarfing Rate,[1]; 0.2% aqueous solution,26.8%
same,dwarfing effect,"[1]; prince melon young plants, 0.05% and 0.2% aqueous solutions",effective
same,Plant Height,cabbage young plants; 0.1% aqueous solution,7.9 cm
same,Dwarfing Rate,cabbage young plants; 0.1% aqueous solution,14.1%
same,Plant Height,cabbage young plants; 0.3% aqueous solution,6.1 cm
same,Dwarfing Rate,cabbage young plants; 0.3% aqueous solution,33.7%
same,dwarfing effect,"cabbage young plants; cabbage young plants, 0.1% and 0.3% aqueous solutions",effective
same,Plant Height,[2]; 0.05% aqueous solution,6.3 cm
same,Dwarfing Rate,[2]; 0.05% aqueous solution,7.4%
same,Plant Height,[2]; 0.2% aqueous solution,4.3 cm
same,Dwarfing Rate,[2]; 0.2% aqueous solution,36.8%
same,dwarfing effect,"[2]; qing-geng-cai young plants, 0.05% and 0.2% aqueous solutions",effective
same,Plant Height,squash young plants; 0.05% aqueous solution,6.3 cm
same,Dwarfing Rate,squash young plants; 0.05% aqueous solution,27.6%
same,Plant Height,squash young plants; 0.2% aqueous solution,4.3 cm
same,Dwarfing Rate,squash young plants; 0.2% aqueous solution,50.6%
same,dwarfing effect,"squash young plants; squash young plants, 0.05% and 0.2% aqueous solutions",effective
